Source: publication PMC8776894 (Communications Biology, 2022)
Where “and” joins values, the source holds several entries; their conditions need not be identical. Equal entries are not always repeated.

How the values were obtained:
[1] = test system: MCAO/R mice, brain homogenate; assay: Biochemical kits, oxidative stress in brain (SOD, MDA, LPO, glutathione); type: in vivo, mouse; details: 48 h
Description: […] The brain was collected, weighed, and placed in a homogenizer for homogenization. Using 0.9% normal saline (NS) as a homogenization medium, a 10% tissue homogenate was prepared, centrifuged at 3500 rpm for 10 min, and the supernatant was taken. […] Kits for ATP, glutamic acid, glutathione, lactic acid, LPO, MDA, and SOD were purchased from Nanjingjiancheng Bioengineering Institute, and were measured as previously described for specification.

MCAO mice = assay: Mortality after MCAO; type: in vivo, mouse; details: vehicle 29.06, P >0.05 vs vehicle
Description: Experimental ischemic stroke was performed by MCAO using published protocols[63],[64] with some modifications. In detail, mice (8–10 weeks)[65] were deeply anesthetized with 1.5% isoflurane in a mixture of 30% O2 and 69% N2O. Conditions of the blood gas were maintained at constant levels throughout the operation (PO2, 120 ± 10 mmHg; PCO2, 35 ± 3 mmHg) and temperatures in the temporal muscle and rectum were also maintained at 37.5 ± 0.2°C and 37.0 ± 0.1°C, respectively. Body temperature was kept in the normal range (36.5–37.5 °C) with a heating lamp and a heating pad during surgery. All surgical supplies and instruments were sterilized. The […] (CCA) and the external carotid artery were then gently separated. The blood flow of CCA was blocked with a sterile nylon suture (No.: MSMC21B120PK50, Ruiwode Bio-technology Co., Ltd., China), which was inserted into middle cerebral artery from CCA. The mice in the sham group underwent the same surgery without a nylon suture. After 60 min, the suture was removed and the blood circulation was recovered, MCAO/R was induced. Regional CBF was monitored in all stroke animals by LSCI (PeriScan PSI System; PERIMED, Stockholm, Sweden) to confirm a successful occlusion. […]

HT22 cells (OGD/R) = assay: Seahorse extracellular acidification rate (ECAR); type: cell-based, mouse; details: dose-dependent
Description: HT22 cells were counted and plated at 8000 cells per well in a Seahorse XF96 Cell Culture Microplate for all experiments (Agilent). They were then treated with VK (0.0735 or 0.735 μM) for 24 h. […] Next, HT22 cells were washed after 24 h of incubation and were incubated in a 0% CO2 chamber at 37 °C for 1 h, before being placed into a Seahorse XFe96 Analyzer (Agilent). In OCR experiment, HT22 cells were treated, with 2 μM of oligomycin, 5 μM of FCCP, and 1 μM of rotenone and antimycin, respectively; to assess ECAR, they were treated with 1 μM of rotenone and antimycin and 50 mM of 2-DG. All OCR and ECAR data were normalized to cell number per well using WAVE (Agilent).

MCAO/R mice [2] = assay: MRI of cerebral infarction after MCAO/R; type: in vivo, mouse; details: VK 300 i.p. at 0, 4, 22.5, 46.5 h, T2-weighted
Description: After MCAO/R, mice were treated with VK ([…], i.p.) at 0, 4, 22.5, and 46.5 h. Mice were deeply anesthetized with 1.5% isoflurane in a mixture of 30% O2 and 69% N2O. The magnetic resonance imaging (MRI) experiments were performed on a horizontal bore 9.4 Tesla scanner operating on a Bruker Avance platform (Bruker 9.4 T Biospec). T2-weighted imaging was used to evaluate the infarct volume. Three mutually perpendicular images were obtained to localize the infarction site. Then, 13–15 T2-weighted axial slices (1 mm thick) covering the entire damage area (field of view = 30 × 30 mm, matrix size = 256 × 256, echo time^3 = 33 ms, repetition time[68] = 3500 ms) were acquired by a spin-echo pulse sequence to delineate anatomical details and calculate qualitative T2 maps[69].

[3] = test system: BV2 microglia cells (OGD/R); assay: BV2 cell viability after OGD/R (CCK8); details: VK 0.0735, 0.735, 7.35 µM
MCAO/R mice [4] = assay: Longa test; type: in vivo, mouse
Source text: Mice were graded on a 5-point scale, which was modified from the Longa score.

MCAO/R mice [5] = assay: Evans blue extravasation, BBB permeability; type: in vivo, mouse; design: EB content in damaged (right) hemisphere (Fig.4): unit not given here; details: for EB content in damaged (right) hemisphere (Fig.4): individual animals
Description: Fig. 4 Protective effect of VK on the blood–brain barrier (BBB) in stroke mice. a Experimental design: in addition to the sham group, mice (8–10 weeks, male) were subjected to MCAO for 60 min. Mice were randomized into four groups: sham group, vehicle group, and VK (150 and 300 µg/kg) groups. Mice were administered VK at 0, 4, 22.5, and 46.5 h after MCAO/R and BBB integrity was assessed by Evans blue (EB) and transmission electron microscope (TEM). b Brain samples were stained with EB. c EB content in damaged (right) hemisphere was quantized. d Schematic of BBB. The BBB mainly consists of endothelial cells (EC), pericytes (PC), astrocytes (Ast), neurons, tight junctions (TJs), and the basement membranes (BM). The main components of the BBB are cerebral microvascular ECs joined by TJs, thus restricting exogenous molecules into the brain. e The structure of the BBB was observed by TEM. In the sham group (e1–3), the capillary morphology was regular, the EC and TJ were complete, the thickness of the BM was uniform and continuous around the outside of EC, and the structure of mitochondria (Mt) was clear. […] The marks with different symbols indicate the constituent cells or matrix of the BBB. Scale bars: 2 µm. Data are expressed as the mean ± SD, n = 5. Values were analyzed using one-way analysis of variance (ANOVA) with the Tukey multiple comparisons test.

Gly-Arg-Pro-Hyp-Gly-Phe-Ser-Pro-Phe-Arg-Ile-Asp [VK, Vespakinin-M]
glutathione in brain, between groups [1]: no obvious difference
MDA and LPO content in brain cortex vs vehicle ([1]; VK 150 and 300 µg/kg): decreased content of MDA and LPO
SOD activity in brain cortex vs vehicle ([1]; VK 150 and 300 µg/kg): enhanced SOD activity
Death rate (mortality) of MCAO mice (MCAO mice; VK 150 μg/kg, 48 MCAO animals): 25%
Death rate (mortality) of MCAO mice (MCAO mice; VK 300 μg/kg, 64 MCAO animals): 18.75%
glycolysis (extracellular acidification rate) in neurons (HT22 cells (OGD/R)): decreased glycolysis
area of cerebral infarction, MRI (MCAO/R mice [2]): reduced the area of cerebral infarction
OGD/R-reduced viability of BV2 cells [3]: reversed by VK treatment in a dose-dependent manner
Longa test score (Fig.2e) (MCAO/R mice [4]; 0.5d, VK 150 µg/kg i.p., individual animals): 4 and 3 (2×) and 2 (3×)
Longa test score (Fig.2e) (MCAO/R mice [4]; 0.5d, VK 300 µg/kg i.p., individual animals): 2 (3×) and 3 (2×) and 4
Longa test score (Fig.2e) (MCAO/R mice [4]; 1d, VK 150 µg/kg i.p., individual animals): 3 and 2 (3×) and 1 (2×)
Longa test score (Fig.2e) (MCAO/R mice [4]; 1d, VK 300 µg/kg i.p., individual animals): 2 (3×) and 3 (2×) and 1
Longa test score (Fig.2e) (MCAO/R mice [4]; 3d, VK 150 µg/kg i.p., individual animals): 2 (2×) and 1 (4×)
Longa test score (Fig.2e) (MCAO/R mice [4]; 3d, VK 300 µg/kg i.p., individual animals): 1 (2×) and 2 (4×)
Longa test score (Fig.2e) (MCAO/R mice [4]; 7d, VK 150 µg/kg i.p., individual animals): 2 and 1 (5×)
Longa test score (Fig.2e) (MCAO/R mice [4]; 7d, VK 300 µg/kg i.p., individual animals): 1 (3×) and 2 (3×)
neurological deficits, Longa test, vs vehicle (MCAO/R mice [4]; MCAO/R mice, VK 150 and 300 µg/kg i.p.): improved neurological deficits
Fig8g neurological score (MCAO/R mice [4]; VK alone or with B1R / B2R blockade, individual animals, n = 5, score and time not given): 1 and 2 and 0
Fig8f neurological score (MCAO/R mice [4]; VK alone or with B1R / B2R blockade, individual animals, n = 6, score and time not given): 1 and 2
EB content in damaged (right) hemisphere (Fig.4) (MCAO/R mice [5]; VK 150 µg/kg i.p.): 0.6116 and 3.907 and 2.036 and 0.849 and 0.3932
EB content in damaged (right) hemisphere (Fig.4) (MCAO/R mice [5]; VK 300 µg/kg i.p.): 0.754 and 0.4027 and 0.5261 and 1.381 and 3.67
BBB permeability, EB extravasation (MCAO/R mice [5]; VK 150 and 300 µg/kg): reversed the effect of MCAO-induced on BBB permeability
